# Columns and labels:
# [1] = molecular target: Alpha-2B adrenergic receptor (Homo sapiens) (UniProt P18089); details: Compound concentration 10.0 uM
# [2] = system: Hepatocyte growth factor receptor (Homo sapiens), P08581 [M1250T]; details: Compound concentration 1000.0 nM
# [3] = molecular target: Serine/threonine-protein kinase Sgk1 (Homo sapiens) (UniProt O00141); details: Compound concentration 1000.0 nM
# [4] = molecular target: Proto-oncogene tyrosine-protein kinase Src (Homo sapiens) (UniProt P12931); details: Compound concentration 1000.0 nM
# [5] = molecular target: Phosphorylase b kinase regulatory subunit alpha, liver isoform (Homo sapiens) (UniProt P46019); details: Compound concentration 1000.0 nM
# Sequence of Phosphorylase b kinase regulatory subunit alpha, liver isoform (Homo sapiens) (P46019 whole entry, canonical isoform): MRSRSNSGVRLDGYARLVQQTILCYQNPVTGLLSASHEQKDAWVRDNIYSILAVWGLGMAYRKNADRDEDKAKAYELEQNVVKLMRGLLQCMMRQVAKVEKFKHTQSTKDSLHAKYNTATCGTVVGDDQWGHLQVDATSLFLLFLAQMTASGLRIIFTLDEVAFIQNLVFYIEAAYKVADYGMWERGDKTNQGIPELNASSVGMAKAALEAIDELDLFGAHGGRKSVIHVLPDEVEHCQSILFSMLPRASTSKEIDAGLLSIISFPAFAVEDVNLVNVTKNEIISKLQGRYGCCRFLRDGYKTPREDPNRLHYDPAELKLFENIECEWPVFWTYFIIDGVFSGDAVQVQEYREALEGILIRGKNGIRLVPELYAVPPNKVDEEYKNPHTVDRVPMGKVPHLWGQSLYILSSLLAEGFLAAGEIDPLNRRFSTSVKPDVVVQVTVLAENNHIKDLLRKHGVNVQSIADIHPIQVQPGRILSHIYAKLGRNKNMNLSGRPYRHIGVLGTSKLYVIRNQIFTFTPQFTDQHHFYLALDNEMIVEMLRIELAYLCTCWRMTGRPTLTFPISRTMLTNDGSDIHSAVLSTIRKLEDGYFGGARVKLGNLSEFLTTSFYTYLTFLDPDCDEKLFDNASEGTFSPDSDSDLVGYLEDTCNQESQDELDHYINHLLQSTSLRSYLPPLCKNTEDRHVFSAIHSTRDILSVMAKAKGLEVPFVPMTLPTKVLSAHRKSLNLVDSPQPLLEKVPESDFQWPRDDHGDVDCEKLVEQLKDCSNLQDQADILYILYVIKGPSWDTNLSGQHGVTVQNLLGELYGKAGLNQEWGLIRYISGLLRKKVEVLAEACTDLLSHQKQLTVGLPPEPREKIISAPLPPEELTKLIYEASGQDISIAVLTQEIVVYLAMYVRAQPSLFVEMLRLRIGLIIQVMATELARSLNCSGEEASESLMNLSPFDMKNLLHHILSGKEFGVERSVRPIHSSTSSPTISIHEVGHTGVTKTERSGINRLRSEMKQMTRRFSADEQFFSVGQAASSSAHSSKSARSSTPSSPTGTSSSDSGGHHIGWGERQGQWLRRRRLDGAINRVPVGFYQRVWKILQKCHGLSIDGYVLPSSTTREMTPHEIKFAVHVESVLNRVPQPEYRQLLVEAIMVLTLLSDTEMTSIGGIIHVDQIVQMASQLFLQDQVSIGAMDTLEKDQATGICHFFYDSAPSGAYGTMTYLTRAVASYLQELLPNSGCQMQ
# [6] = system: Mast/stem cell growth factor receptor Kit (Homo sapiens), P10721 [A829P]; details: Compound concentration 1000.0 nM
# [7] = molecular target: Testis-specific serine/threonine-protein kinase 3 (Homo sapiens) (UniProt Q96PN8); details: Compound concentration 1000.0 nM
# [8] = molecular target: Serine/threonine-protein kinase OSR1 (Homo sapiens) (UniProt O95747); details: Compound concentration 1000.0 nM
# [9] = molecular target: Serine/threonine-protein kinase 38-like (Homo sapiens) (UniProt Q9Y2H1); details: Compound concentration 1000.0 nM
# [10] = molecular target: Mitogen-activated protein kinase kinase kinase 4 (Homo sapiens) (UniProt Q9Y6R4); details: Compound concentration 1000.0 nM
# [11] = molecular target: 5-hydroxytryptamine receptor 3A (Homo sapiens) (UniProt P46098); details: Compound concentration 10.0 uM
# [12] = system: Mast/stem cell growth factor receptor Kit (Homo sapiens), P10721 [V559D]; details: Compound concentration 1000.0 nM
# [13] = molecular target: Serine/threonine-protein kinase ULK1 (Homo sapiens) (UniProt O75385); details: Compound concentration 1000.0 nM
# [14] = system: Mast/stem cell growth factor receptor Kit (Homo sapiens), P10721 [V559D,T670I]; details: Compound concentration 1000.0 nM
# [15] = molecular target: Dual specificity testis-specific protein kinase 1 (Homo sapiens) (UniProt Q15569); details: Compound concentration 1000.0 nM
# [16] = molecular target: Serine/threonine-protein kinase SIK3 (Homo sapiens) (UniProt Q9Y2K2); details: Compound concentration 1000.0 nM
# [17] = molecular target: MAP kinase-interacting serine/threonine-protein kinase 1 (Homo sapiens) (UniProt Q9BUB5); details: Compound concentration 1000.0 nM
# Sequence of MAP kinase-interacting serine/threonine-protein kinase 1 (Homo sapiens) (Q9BUB5 whole entry, looked up): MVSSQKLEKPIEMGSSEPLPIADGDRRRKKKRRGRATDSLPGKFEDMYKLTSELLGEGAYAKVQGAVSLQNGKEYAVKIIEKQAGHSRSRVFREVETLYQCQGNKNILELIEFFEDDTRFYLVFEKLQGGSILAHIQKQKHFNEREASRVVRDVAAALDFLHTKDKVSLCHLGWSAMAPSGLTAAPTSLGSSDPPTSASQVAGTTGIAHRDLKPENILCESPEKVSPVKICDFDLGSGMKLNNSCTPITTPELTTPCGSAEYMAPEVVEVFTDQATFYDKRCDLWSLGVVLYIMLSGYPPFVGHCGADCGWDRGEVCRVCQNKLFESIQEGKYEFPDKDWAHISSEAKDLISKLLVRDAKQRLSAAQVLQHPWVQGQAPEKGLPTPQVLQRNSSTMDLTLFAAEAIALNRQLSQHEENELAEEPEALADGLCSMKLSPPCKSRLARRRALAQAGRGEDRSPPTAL
# [18] = molecular target: Calcium/calmodulin-dependent protein kinase type 1G (Homo sapiens) (UniProt Q96NX5); details: Compound concentration 1000.0 nM
# [19] = molecular target: Mitogen-activated protein kinase kinase kinase 11 (Homo sapiens) (UniProt Q16584); details: Compound concentration 1000.0 nM
# [20] = molecular target: Tyrosine-protein kinase BTK (Homo sapiens) (UniProt Q06187); details: Compound concentration 1000.0 nM
# [21] = molecular target: GABA-A receptor; anion channel (Rattus norvegicus) (UniProt O09028+P15431+P18506+P18508+P19969+P20236+P23574+P23576+P28471+P28473+P30191+P62813+P63079+P63138+Q91ZM7+Q9ES14); details: Compound concentration 10.0 uM
# [22] = system: Phosphatidylinositol 4,5-bisphosphate 3-kinase catalytic subunit alpha isoform (Homo sapiens), P42336 [E542K]; details: Compound concentration 1000.0 nM
# [23] = molecular target: Serine/threonine-protein kinase WNK3 (Homo sapiens) (UniProt Q9BYP7); details: Compound concentration 1000.0 nM
# [24] = molecular target: Serine/threonine-protein kinase TAO3 (Homo sapiens) (UniProt Q9H2K8); details: Compound concentration 1000.0 nM
# Sequence of Serine/threonine-protein kinase TAO3 (Homo sapiens) (Q9H2K8 whole entry, canonical isoform): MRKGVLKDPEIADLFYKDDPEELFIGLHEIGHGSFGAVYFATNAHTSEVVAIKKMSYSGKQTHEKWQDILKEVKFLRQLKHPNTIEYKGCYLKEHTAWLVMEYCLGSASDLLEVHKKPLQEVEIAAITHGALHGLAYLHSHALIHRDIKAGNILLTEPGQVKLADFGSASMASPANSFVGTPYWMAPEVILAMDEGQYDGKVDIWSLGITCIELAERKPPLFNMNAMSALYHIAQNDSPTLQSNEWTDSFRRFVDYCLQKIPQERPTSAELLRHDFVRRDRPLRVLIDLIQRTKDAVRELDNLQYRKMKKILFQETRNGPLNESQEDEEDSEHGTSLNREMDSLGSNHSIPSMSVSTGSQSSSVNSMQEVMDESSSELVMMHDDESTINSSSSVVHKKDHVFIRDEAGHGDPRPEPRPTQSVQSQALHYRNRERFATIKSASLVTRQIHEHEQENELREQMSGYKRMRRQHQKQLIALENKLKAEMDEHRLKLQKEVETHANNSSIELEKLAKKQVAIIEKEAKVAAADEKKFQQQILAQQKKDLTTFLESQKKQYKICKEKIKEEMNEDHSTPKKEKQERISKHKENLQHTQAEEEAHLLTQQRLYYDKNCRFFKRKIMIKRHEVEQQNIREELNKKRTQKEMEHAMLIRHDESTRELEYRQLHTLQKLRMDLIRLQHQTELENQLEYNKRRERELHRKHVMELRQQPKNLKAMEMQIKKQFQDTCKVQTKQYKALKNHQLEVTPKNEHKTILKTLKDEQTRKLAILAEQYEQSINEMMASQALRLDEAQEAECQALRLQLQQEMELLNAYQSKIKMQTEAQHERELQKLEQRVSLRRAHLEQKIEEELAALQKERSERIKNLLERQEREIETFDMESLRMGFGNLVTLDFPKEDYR
# [25] = molecular target: Casein kinase I isoform epsilon (Homo sapiens) (UniProt P49674); details: Compound concentration 1000.0 nM
# [26] = molecular target: Aurora kinase A (Homo sapiens) (UniProt O14965); details: Compound concentration 1000.0 nM
# [27] = molecular target: Serine/threonine-protein kinase SBK1 (Homo sapiens) (UniProt Q52WX2); details: Compound concentration 1000.0 nM
# [28] = molecular target: Beta-2 adrenergic receptor (Homo sapiens) (UniProt P07550); details: Compound concentration 10.0 uM
# [29] = molecular target: Serine/threonine-protein kinase PAK 5 (Homo sapiens) (UniProt Q9P286); details: Compound concentration 1000.0 nM
# Sequence of Serine/threonine-protein kinase PAK 5 (Homo sapiens) (Q9P286 whole entry, looked up): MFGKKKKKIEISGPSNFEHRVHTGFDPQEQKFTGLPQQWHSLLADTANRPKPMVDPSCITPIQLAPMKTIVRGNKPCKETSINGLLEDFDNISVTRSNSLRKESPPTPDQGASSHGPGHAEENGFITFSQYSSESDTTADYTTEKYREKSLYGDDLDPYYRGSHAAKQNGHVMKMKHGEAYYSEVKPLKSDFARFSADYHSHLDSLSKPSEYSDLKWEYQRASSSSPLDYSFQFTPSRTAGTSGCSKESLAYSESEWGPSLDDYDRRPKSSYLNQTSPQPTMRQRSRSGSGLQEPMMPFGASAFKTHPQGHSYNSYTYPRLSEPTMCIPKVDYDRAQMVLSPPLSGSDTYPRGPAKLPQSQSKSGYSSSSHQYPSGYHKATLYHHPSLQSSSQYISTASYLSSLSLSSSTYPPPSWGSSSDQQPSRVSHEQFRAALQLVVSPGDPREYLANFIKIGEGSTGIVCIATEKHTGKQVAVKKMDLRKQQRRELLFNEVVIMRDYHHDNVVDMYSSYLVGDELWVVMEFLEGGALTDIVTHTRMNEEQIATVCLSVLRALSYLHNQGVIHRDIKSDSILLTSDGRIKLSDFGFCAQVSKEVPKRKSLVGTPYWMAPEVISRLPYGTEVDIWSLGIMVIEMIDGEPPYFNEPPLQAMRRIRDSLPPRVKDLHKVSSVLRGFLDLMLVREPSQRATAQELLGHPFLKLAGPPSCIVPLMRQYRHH
# [30] = molecular target: Phosphatidylinositol 5-phosphate 4-kinase type-2 beta (Homo sapiens) (UniProt P78356); details: Compound concentration 1000.0 nM
# Sequence of Phosphatidylinositol 5-phosphate 4-kinase type-2 beta (Homo sapiens) (P78356 whole entry): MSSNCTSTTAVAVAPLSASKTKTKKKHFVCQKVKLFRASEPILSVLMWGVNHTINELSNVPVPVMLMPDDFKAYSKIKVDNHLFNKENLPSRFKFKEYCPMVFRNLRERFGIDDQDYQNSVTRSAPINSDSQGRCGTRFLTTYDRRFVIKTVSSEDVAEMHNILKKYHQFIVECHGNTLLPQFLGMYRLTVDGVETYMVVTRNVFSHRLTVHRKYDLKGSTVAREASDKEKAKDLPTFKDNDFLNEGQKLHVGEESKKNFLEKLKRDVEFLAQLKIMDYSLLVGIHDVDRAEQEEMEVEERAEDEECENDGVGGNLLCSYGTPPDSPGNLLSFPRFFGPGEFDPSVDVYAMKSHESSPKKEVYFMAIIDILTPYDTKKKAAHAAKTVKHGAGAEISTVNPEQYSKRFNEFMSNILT
# [31] = molecular target: Tyrosine-protein kinase ABL1 (Homo sapiens) (UniProt P00519); details: Compound concentration 1000.0 nM
# [32] = molecular target: Phosphatidylinositol 4,5-bisphosphate 3-kinase catalytic subunit beta isoform (Homo sapiens) (UniProt P42338); details: Compound concentration 1000.0 nM
# [33] = molecular target: Insulin-like growth factor 1 receptor (Homo sapiens) (UniProt P08069); details: Compound concentration 1000.0 nM
# [34] = molecular target: 5'-AMP-activated protein kinase catalytic subunit alpha-2 (Homo sapiens) (UniProt P54646); details: Compound concentration 1000.0 nM
# [35] = molecular target: Dual specificity tyrosine-phosphorylation-regulated kinase 2 (Homo sapiens) (UniProt Q92630); details: Compound concentration 1000.0 nM
# [36] = molecular target: Cyclin-dependent kinase-like 2 (Homo sapiens) (UniProt Q92772); details: Compound concentration 1000.0 nM
# [37] = molecular target: High affinity nerve growth factor receptor (Homo sapiens) (UniProt P04629); details: Compound concentration 1000.0 nM
# [38] = molecular target: Tyrosine-protein kinase FRK (Homo sapiens) (UniProt P42685); details: Compound concentration 1000.0 nM
# [39] = molecular target: Interleukin-1 receptor-associated kinase 1 (Homo sapiens) (UniProt P51617); details: Compound concentration 1000.0 nM
# [40] = molecular target: Interleukin-1 receptor-associated kinase 3 (Homo sapiens) (UniProt Q9Y616); details: Compound concentration 1000.0 nM
# Sequence of Interleukin-1 receptor-associated kinase 3 (Homo sapiens) (Q9Y616 whole entry): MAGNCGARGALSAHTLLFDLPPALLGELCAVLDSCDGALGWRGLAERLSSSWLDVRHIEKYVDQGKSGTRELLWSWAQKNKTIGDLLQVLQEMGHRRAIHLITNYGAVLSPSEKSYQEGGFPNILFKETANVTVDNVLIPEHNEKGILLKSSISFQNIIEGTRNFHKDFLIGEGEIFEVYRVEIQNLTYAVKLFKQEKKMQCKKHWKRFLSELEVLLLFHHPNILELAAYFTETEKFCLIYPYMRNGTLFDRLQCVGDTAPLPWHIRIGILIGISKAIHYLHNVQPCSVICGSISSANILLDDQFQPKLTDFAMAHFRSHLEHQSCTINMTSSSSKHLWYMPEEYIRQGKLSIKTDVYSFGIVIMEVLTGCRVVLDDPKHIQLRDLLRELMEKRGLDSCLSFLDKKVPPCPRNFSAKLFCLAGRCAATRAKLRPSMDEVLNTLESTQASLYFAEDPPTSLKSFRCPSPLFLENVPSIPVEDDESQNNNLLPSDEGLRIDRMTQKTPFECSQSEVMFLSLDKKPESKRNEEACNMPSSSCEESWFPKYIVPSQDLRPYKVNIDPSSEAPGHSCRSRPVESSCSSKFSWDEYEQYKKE
# [41] = molecular target: Mitogen-activated protein kinase kinase kinase 7 (Homo sapiens) (UniProt O43318); details: Compound concentration 1000.0 nM
# Sequence of Mitogen-activated protein kinase kinase kinase 7 (Homo sapiens) (O43318 whole entry): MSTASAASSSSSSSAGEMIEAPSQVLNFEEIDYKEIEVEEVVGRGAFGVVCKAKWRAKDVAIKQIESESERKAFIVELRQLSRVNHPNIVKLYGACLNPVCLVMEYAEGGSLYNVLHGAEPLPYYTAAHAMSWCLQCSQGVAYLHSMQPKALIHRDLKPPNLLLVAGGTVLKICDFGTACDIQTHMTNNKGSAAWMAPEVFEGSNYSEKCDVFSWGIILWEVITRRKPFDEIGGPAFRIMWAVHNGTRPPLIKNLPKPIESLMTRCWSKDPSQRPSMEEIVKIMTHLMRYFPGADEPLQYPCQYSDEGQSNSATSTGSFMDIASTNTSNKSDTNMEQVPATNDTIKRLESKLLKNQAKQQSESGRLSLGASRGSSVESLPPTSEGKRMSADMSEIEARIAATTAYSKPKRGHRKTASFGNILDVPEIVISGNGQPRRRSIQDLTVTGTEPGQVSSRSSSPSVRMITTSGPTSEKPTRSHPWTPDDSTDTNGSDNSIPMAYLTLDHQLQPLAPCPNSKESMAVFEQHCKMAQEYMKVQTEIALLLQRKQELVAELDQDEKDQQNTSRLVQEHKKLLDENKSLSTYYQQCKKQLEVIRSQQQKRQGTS
# [42] = system: Receptor-type tyrosine-protein kinase FLT3 (Homo sapiens), P36888 [D835Y]; details: Compound concentration 1000.0 nM
# [43] = molecular target: D(4) dopamine receptor (Homo sapiens) (UniProt P21917); details: Compound concentration 10.0 uM
smiles,measurement,setting,value
O=C(Nc1cnc(Oc2ccc(F)cc2)nc1)N1CCc2ncccc2[C@@H]1c1ccc(F)cc1 [BAY-899],inhibition,[1],9.66%
same,residual activity,[2],100%
same,residual activity,[3],75%
same,residual activity,[4],93%
same,residual activity,[5],96%
same,residual activity,[6],100%
same,residual activity,[7],86%
same,residual activity,[8],93%
same,residual activity,[9],75%
same,residual activity,[10],89%
same,inhibition,[11],45.8%
same,residual activity,[12],100%
same,residual activity,[13],88%
same,residual activity,[14],84%
same,residual activity,[15],91%
same,residual activity,[16],86%
same,residual activity,[17],95%
same,residual activity,[18],97%
same,residual activity,[19],83%
same,residual activity,[20],92%
same,inhibition,[21],26%
same,residual activity,[22],81%
same,residual activity,[23],93%
same,residual activity,[24],100%
same,residual activity,[25],66%
same,residual activity,[26],100%
same,residual activity,[27],100%
same,inhibition,[28],25.3%
same,residual activity,[29],95%
same,residual activity,[30],100%
same,residual activity,[31],93%
same,residual activity,[32],84%
same,residual activity,[33],100%
same,residual activity,[34],79%
same,residual activity,[35],81%
same,residual activity,[36],33%
same,residual activity,[37],100%
same,residual activity,[38],98%
same,residual activity,[39],88%
same,residual activity,[40],100%
same,residual activity,[41],90%
same,residual activity,[42],100%
same,inhibition,[43],43.8%
O=C(Nc1ccc(Oc2ccc(F)cc2)cc1)N1CCc2ncccc2[C@H]1c1ccc(F)cc1 [BAY-897],inhibition,[1],49.6%
same,residual activity,[2],97%
same,residual activity,[3],95%
same,residual activity,[4],91%
same,residual activity,[5],100%
same,residual activity,[6],100%
same,residual activity,[7],98%
same,residual activity,[8],90%
same,residual activity,[9],76%
same,residual activity,[10],100%
same,inhibition,[11],4.7%
same,residual activity,[12],100%
same,residual activity,[13],89%
same,residual activity,[14],85%
same,residual activity,[15],100%
same,residual activity,[16],100%
same,residual activity,[17],95%
same,residual activity,[18],100%
same,residual activity,[19],78%
same,residual activity,[20],93%
same,inhibition,[21],22.4%
same,residual activity,[22],71%
same,residual activity,[23],94%
same,residual activity,[24],92%
same,residual activity,[25],85%
same,residual activity,[26],100%
same,residual activity,[27],89%
same,inhibition,[28],25.6%
same,residual activity,[29],100%
same,residual activity,[30],97%
same,residual activity,[31],100%
same,residual activity,[32],77%
same,residual activity,[33],100%
same,residual activity,[34],51%
same,residual activity,[35],84%
same,residual activity,[36],77%
same,residual activity,[37],85%
same,residual activity,[38],93%
same,residual activity,[39],88%
same,residual activity,[40],100%
same,residual activity,[41],89%
same,residual activity,[42],99%
same,inhibition,[43],0.29%

# Source: ChEMBL document CHEMBL4507317, “Data for DCP probe BAY-899” (2021)
